Source: patent publication EP0044212B1, “Herbicidal o-alkylsulfonyloxy- and o-alkylsulfonylamino-benzenesulfonamides” (E.I. DU PONT DE NEMOURS AND COMPANY, priority 1980, dated 1982)

Tests used:
Giant Foxtail [1] = assay: Test B pre-emergence on Fallsington silt loam; type: in vivo, Setaria faberii; settings: 0.12 kg/ha, 28 days
Excerpt: (§1) Two plastic bulb pans were filled with fertilized and limed Fallsington silt loam soil. One pan was planted with corn, sorghum, Kentucky bluegrass and several grassy weeds. The other pan was planted with cotton, soybeans, purple nutsedge (Cyperus rotundus), and several broadleaf weeds. The following grassy and broadleaf weeds were planted: crabgrass (Digitaria sanguinalis), barnyardgrass (Echinochloa crusgalli), wild oats (Avena fatua), johnsongrass (Sorghum halepense), dallisgrass (Paspalum dilatatum), giant foxtail (Setaria faberii), cheatgrass (Bromus secalinus), mustard (Brassica arvensis), cocklebur (Xanthium pensylvanicum), pigweed (Amaranthus retroflexus), morningglory (Ipomoea hederacea), cassia (Cassia tora), teaweed (Sida spinosa), velvetleaf (Abutilon theophrasti), and jimsonweed (Datura stramonium). A 12.5 cm diameter plastic pot was also filed with prepared soil and planted with rice and wheat. Another 12.5 cm pot was planted with sugarbeets. The above four containers were treated pre- emergence with several test compounds within the scope of the invention.
(§2) Twenty-eight days after treatment, the plants were evaluated and visually rated for response to the chemical treatments utilizing the rating system described previously for Test A. The data are summarized in Table B.

Wild Oats = assay: Test F over-the-top soil/foliage treatment; type: in vivo, Avena fatua; parameters: scale not given here; settings: soil/foliage spray; 0.06 kg/ha; ~14 days
Method: (§3) The test chemicals, dissolved in a non-phytotoxic solvent, were applied in an overall spray to the foliage and surrounding […] of selected plant species. […] Approximately fourteen days after treatment, all species were visually compared to untreated controls and rated for response to treatment.
(§4) All plant species were seeded in Woodstown sandy loam soil and grown in a greenhouse. The following species were grown in soil contained in plastic pots (25 cm diameter by 13 cm deep): soybeans, cotton, alfalfa, corn, rice, wheet, sorghum, velvetleaf (Abutilon theophrasti), sesbania (Sesbania exaltata), Cassia (Cassia tora), morningglory (Ipomoea hederacea), jimsonweed (Datura stramonium), cocklebur (Xanthium pensylvanicum), crabgrass (Digitaria spp.), nutsedge (Cyperus rotundus), barnyardgrass (Echinochloa crusgalli), giant foxtail (Setaria faberii) and wild oats (Avena fatua). The following species were grown in soil in a paper cup (12 cm diameter by 13 cm deep): sunflower, sugarbeets, and mustard. All plants were sprayed approximately 14 days after planting.

Wheat [2] = assay: Test F over-the-top soil/foliage treatment; type: in vivo, wheet; parameters: scale not given here; settings: soil/foliage spray, ~14 days
Method: as §3, §4

Giant Foxtail [3] = assay: Test F over-the-top soil/foliage treatment; type: in vivo, Setaria faberii; parameters: scale not given here; settings: soil/foliage spray; 0.06 kg/ha; ~14 days
Method: as §3, §4

Barnyardgrass [4] = assay: Test B pre-emergence on Fallsington silt loam; type: in vivo, Echinochloa crusgalli; settings: 0.12 kg/ha, 28 days
Excerpt: as §1, §2

Morningglory [5] = assay: Test B pre-emergence on Fallsington silt loam; type: in vivo, Ipomoea hederacea; settings: 0.03 kg/ha, 28 days
Excerpt: as §1, §2

Sugarbeets = assay: Test B pre-emergence on Fallsington silt loam; type: in vivo; parameters: scale not given here; settings: 28 days
Excerpt: as §1, §2

Wheat [6] = assay: Test B pre-emergence on Fallsington silt loam; type: in vivo; parameters: scale not given here; settings: 0.03 kg/ha, 28 days
Excerpt: as §1, §2

Corn [7] = assay: Test B pre-emergence on Fallsington silt loam; type: in vivo; parameters: scale not given here; settings: 0.12 kg/ha, 28 days
Excerpt: as §1, §2

Crabgrass = assay: Test F over-the-top soil/foliage treatment; type: in vivo, Digitaria spp.; parameters: scale not given here; settings: soil/foliage spray; 0.06 kg/ha; ~14 days
Method: as §3, §4

Alfalfa = assay: Test F over-the-top soil/foliage treatment; type: in vivo; parameters: scale not given here; settings: soil/foliage spray, ~14 days
Method: as §3, §4

Sorghum [8] = assay: Test F over-the-top soil/foliage treatment; type: in vivo; parameters: scale not given here; settings: soil/foliage spray; 0.06 kg/ha; ~14 days
Method: as §3, §4

Velvetleaf = assay: Test F over-the-top soil/foliage treatment; type: in vivo, Abutilon theophrasti; settings: soil/foliage spray; 0.015 kg/ha; ~14 days
Method: as §3, §4

Ky. bluegrass = assay: Test B pre-emergence on Fallsington silt loam; type: in vivo, Kentucky bluegrass; parameters: scale not given here; settings: 0.12 kg/ha, 28 days
Excerpt: as §1, §2

Cocklebur = assay: Test B pre-emergence on Fallsington silt loam; type: in vivo, Xanthium pensylvanicum; settings: 28 days
Excerpt: as §1, §2

Nutsedge [9] = assay: Test B pre-emergence on Fallsington silt loam; type: in vivo, Cyperus rotundus; settings: 0.03 kg/ha, 28 days
Excerpt: as §1, §2

Nutsedge [10] = assay: Test F over-the-top soil/foliage treatment; type: in vivo, Cyperus rotundus; parameters: scale not given here; settings: soil/foliage spray, ~14 days
Method: as §3, §4

Johnsongrass = assay: Test B pre-emergence on Fallsington silt loam; type: in vivo, Sorghum halepense; parameters: scale not given here; settings: 0.12 kg/ha, 28 days
Excerpt: as §1, §2

Morningglory [11] = assay: Test F over-the-top soil/foliage treatment; type: in vivo, Ipomoea hederacea; settings: soil/foliage spray; 0.06 kg/ha; ~14 days
Method: as §3, §4

Barnyardgrass [12] = assay: Test F over-the-top soil/foliage treatment; type: in vivo, Echinochloa crusgalli; parameters: scale not given here; settings: soil/foliage spray; 0.06 kg/ha; ~14 days
Method: as §3, §4

Wheat [13] = assay: Test C pre-emergence on Fallsington silt loam soil; type: in vivo; settings: 0.06 kg/ha, 28 days
Excerpt: The high herbicidal activity of two of the compounds from within the scope of the invention is evident from the results obtained in this test. The experiment concerned pre-emergence applications on soil. The containers used were 25 cm diameter plastic pots filled with Fallsington silt loam. One set of pots was planted to weeds, the seeds of which were uniformly mixed with the top 1.2 cm layer of soil. The species selected were: johnsongrass (Sorghum halepense), barnyardgrass (Echinochloa crusgalli), crabgrass (Digitaria sanguinalis), giant foxtail (Setaria faberii), velvetleaf (Abutilon theophrasti), jimsonweed (Datura stramonium), mustard (Brassica arvensis), and pigweed (Amaranthus retroflexus). Another set of pots were planted to the following crops with from one to four species per pot: corn (planting depth 3.7 cm), cotton, soybeans, sunflower, Clinton oats, wheat, Black Valentine beans, rice, sorghum, peas, flax, and peanuts (all at 2.5 cm depth), cucumbers, cabbage, alfalfa, safflower, sugarbeets, tomato, spinach, barley, and Kentucky bluegrass (all at 1.2 cm depth). Immediately after planting, the test chemical was applied to the soil surfaces dissolved in a non-phytotoxic solvent. One pot from the weed phase and one of each of the crop species were left untreated for the purpose of comparison. The treated and untreated pots were promptly watered with approximatley 4 mm of simultated rainfall and then held in a greenhouse for several weeks. Visual weed and crop response ratings were made 28 days after treatment utilizing the rating system as described above for Test A. The data are given in Table C.

Pigweed = assay: Test B pre-emergence on Fallsington silt loam; type: in vivo, Amaranthus retroflexus; settings: 0.03 kg/ha, 28 days
Excerpt: as §1, §2

Mustard = assay: Test B pre-emergence on Fallsington silt loam; type: in vivo, Brassica arvensis; settings: 28 days
Excerpt: as §1, §2

Soybeans = assay: Test F over-the-top soil/foliage treatment; type: in vivo; settings: soil/foliage spray; 0.06 kg/ha; ~14 days
Method: as §3, §4

Rice = assay: Test F over-the-top soil/foliage treatment; type: in vivo; settings: soil/foliage spray; 0.06 kg/ha; ~14 days
Method: as §3, §4

Corn [14] = assay: Test F over-the-top soil/foliage treatment; type: in vivo; settings: soil/foliage spray; 0.06 kg/ha; ~14 days
Method: as §3, §4

Sesbania = assay: Test F over-the-top soil/foliage treatment; type: in vivo, Sesbania exaltata; parameters: scale not given here; settings: soil/foliage spray, ~14 days
Method: as §3, §4

Jimsonweed = assay: Test F over-the-top soil/foliage treatment; type: in vivo, Datura stramonium; settings: soil/foliage spray; 0.06 kg/ha; ~14 days
Method: as §3, §4

Sorghum [15] = assay: Test B pre-emergence on Fallsington silt loam; type: in vivo; settings: 0.03 kg/ha, 28 days
Excerpt: as §1, §2

COc1cc(C)nc(NC(=O)NS(=O)(=O)c2ccccc2OS(C)(=O)=O)n1 [Compound 2, 2-Hydroxy-N-[(4-methoxy-6-methylpyrimidin-2-yl)aminocarbonyl]benzenesulfonamide, methanesulfonate]
6G: Nutsedge response rating (Nutsedge [9])
5G: Wheat response rating (Wheat [6]) | Velvetleaf response rating (Velvetleaf) | Cocklebur response rating (Cocklebur; 0.03 kg/ha) | Wheat response rating (Wheat [13])
9C: Wheat response rating (Wheat [2]; 0.06 kg/ha) | Soybeans response rating (Soybeans) | Sesbania response rating (Sesbania; 0.015 kg/ha)
1C: Wheat response rating (Wheat [2]; 0.015 kg/ha)
7G: Morningglory response rating (Morningglory [5]) | Pigweed response rating (Pigweed)
2C: Nutsedge response rating (Nutsedge [10]; 0.015 kg/ha)
7C: Alfalfa response rating (Alfalfa; 0.015 kg/ha)
10C: Giant Foxtail response rating (Giant Foxtail [1]) | Wild Oats response rating (Wild Oats) | Giant Foxtail response rating (Giant Foxtail [3]) | Barnyardgrass response rating (Barnyardgrass [4]) | Sugarbeets response rating (Sugarbeets; 0.03 kg/ha) | Sugarbeets response rating (Sugarbeets; 0.12 kg/ha) | Corn response rating (Corn [7]) | Crabgrass response rating (Crabgrass) | Alfalfa response rating (Alfalfa; 0.06 kg/ha) | Sorghum response rating (Sorghum [8]) | Ky. bluegrass response rating (Ky. bluegrass) | Cocklebur response rating (Cocklebur; 0.12 kg/ha) | Nutsedge response rating (Nutsedge [10]; 0.06 kg/ha) | Johnsongrass response rating (Johnsongrass) | Morningglory response rating (Morningglory [11]) | Barnyardgrass response rating (Barnyardgrass [12]) | Mustard response rating (Mustard; 0.03 kg/ha) | Mustard response rating (Mustard; 0.12 kg/ha) | Rice response rating (Rice) | Corn response rating (Corn [14]) | Sesbania response rating (Sesbania; 0.06 kg/ha) | Jimsonweed response rating (Jimsonweed) | Sorghum response rating (Sorghum [15])
